The values that follow come from patent publication US20210130339A1, “COMPOUNDS” (GLAXOSMITHKLINE INTELLECTUAL PROPERTY DEVELOPMENT LIMITED, priority 2017, published 2021).

For experiment [1], the target named is T1, Full length G2019 human LRRK2 (Homo sapiens, UniProt Q5S007).
T1 construct: purified recombinant Full length Flag-LRRK2 in assay buffer; made in house; host or cells: HEK293 6E cells transduced with BacMam virus (virus generated in Sf9 cells)
As to the kind of experiment: Full length G2019 human LRRK2 Inhibition Mass Spectrometry assay. It counts as biochemical. The conditions noted are these: LRRKtide substrate, RapidFire mass spectrometry; read-out: pIC50 in the Full length G2019 human LRRK2 Inhibition Mass Spectrometry assay (converted). The procedure: a. Full Length G2019 Human LRRK2 Inhibition Mass Spectrometry Assay
This assay for Leucine Rich Repeat Kinase 2 (LRRK2) inhibition is based on the direct measurement of the peptide ‘LRRKtide’ (LRRKtide: RLGRDKYKT*LRQIRQ and “*” refers to the site of phosphorylation.) and phosphorylated ‘LRRKtide’ using a high throughput RapidFire mass spectrometry assay. Inhibitors are compounds that reduce the conversion of LRRKtide to phospho-LRRKtide.
HEK293 6E cells were incubated in a 37° C. incubator with a humidified atmosphere of 5% CO2 on an orbital shaker rotating at 110 rpm. On the day of transduction, the cell viability was higher than 98% and the cell density was in the range of 1×10^6˜1.5×10^6 cells/ml. HEK293 6E cells were centrifuged at 1,000 rpm for 10 min, and then the cells were resuspended in fresh Freestyle 293 expression medium (Invitrogen:12338) with 0.1% F-68 (Invitrogen:24040-032) but without antibiotics (G418) at density of 1×10^6 cells/ml. BacMam virus with Flag-hu LRRK2 (genotypically normal) gene was centrifuged at 40,000 g for 2 hours, then resuspended in fresh Freestyle 293 expression medium. The resuspended virus was added into the cells in at MOI of 10. The cells were incubated in a 37° C. incubator with a humidified atmosphere of 5% CO2 in air on an orbital shaker rotating at 110 rpm. Cultures were harvested at approximately 48 hours post-transduction by centrifugation at 4,000 rpm for 20 min and pellets were frozen for purification.
The suspended cells were lysed by sonication on ice for 30 min (2 secs on/4 sec off, 20% amplitude), and centrifuged at 10,000 rpm for 30 minutes at 4° C. The supernatant was incubated with 1 mL per litre of cell culture of anti-Flag magnetic beads (Sigma-Aldrich: M8823) at 4° C. for 3 hours, then the beads were washed by 5 mL (5 column volume) binding buffer (50 mM Tris pH7.5@ 4C, 500 mM NaCl, 0.5 mM EDTA, 0.1% TritonX-100, 10% glycerol, freshly add 2 mM DTT) for three times. The Flag tagged LRRK2 proteins were eluted by Elution buffer (50 mM Tris pH7.5@ 4C, 500 mM NaCl, 0.5 mM EDTA, 0.1% TritonX-100, 10% glycerol, freshly add 2 mM DTT, 250 ug/ml Flag peptide (Sigma-Aldrich:F3290)) at 4° C. for 2 hours. Flag peptide was removed by Zeba Spin Desalting Columns, 7K MWCO (Thermo-Fisher: 89893) and the buffer of eluted LRRK2 proteins was exchanged into Storage Buffer (50 mM Tris pH7.5@4C, 150 mM NaCl, 0.5 mM EDTA, 0.02% Triton X-100, 2 mM DTT and 50% Glycerol) using Amicon Ultra Centrifugal Filter Units (100 kD) (Merck: UFC910096). Fractions containing LRRK2 proteins were pooled, aliquoted and stored at −80° C. Protein concentration was determined by Bradford protein assay, and protein purity was analyzed by NuPAG Novex 4-12% Bis-Tris Protein Gels (Invitrogen: NP0322BOX).
• 1) A 10 mM test compound was dissolved in 100% DMSO and serially diluted 1 in 4. 100 nL of this dilution series was then added to a 384 well, v bottom polypropylene plate, excluding columns 6 and 18. 100 nL of DMSO was added to columns 6 and 18 as controls wells. Assay dilution gave a top final assay concentration of test compound of 100 μM • 2) 50 μl of 1% formic acid in laboratory grade water was added to column 18 using a multidrop combi dispenser to act as a pre stopped assay control. • 3) 5 μl of ‘enzyme solution’ containing 50 nM of purified recombinant Full length Flag-LRRK2 in assay buffer (50 mM Hepes (pH 7.2), 10 mM MgCl2, 150 mM NaCl, 5% glycerol, 0.0025% triton X-100 and 1 mM DTT) was added to all wells using a multidrop combi dispenser, giving a final assay concentration of 25 nM LRRK2 enzyme. […] Test plates were then incubated for 30 minutes at room temperature. • 4) 5 μl ‘substrate solution’ containing 50 uM LRRKtide peptide substrate and 4 mM ATP was added to all wells of the plate using a multidrop combi dispenser giving a final assay concentration of 25 uM LRRKtide and 2 mM ATP. Test plates were then incubated for 1 hour at room temperature. […]

Experiment [2] addresses T2, recombinant full length LRRK2 (Homo sapiens, UniProt Q5S007).
T2 construct: A BacMam virus expressing full length recombinant LRRK2 was purchased from Invitrogen; host or cells: SH-SY5Y human neuroblastoma cells transduced with BacMam LRRK2 virus (MOI 50)
Put plainly: Recombinant cellular LRRK2 AlphaScreen assay. It counts as cell-based. The conditions noted are these: LRRK2 Ser935 phosphorylation, SH-SY5Y cells over-expressing recombinant full length LRRK2; read-out: pIC50 in the recombinant cellular LRRK2 AlphaScreen assay (converted). The method, boiled down: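 SH-SY5Y neuroblastoma cells transduced with BacMam full-length human LRRK2 (MOI 50, 24 h) were treated with compounds for 60 min at 37 °C, top final 10 µM. Lysates probed by AlphaScreen for pSer935 versus total LRRK2; sigmoidal dose-response fit.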
(In general: Bead proximity is the source of the signal in Alpha formats.)

Values joined by “and” are separate entries in the source; they are usually repeats but may differ in a detail not shown here. Identical values can stand only once. A value given as a limit tells only on which side of the number the result lay.

T1 sequence (Q5S007 with tags, fused parts or gaps R50H): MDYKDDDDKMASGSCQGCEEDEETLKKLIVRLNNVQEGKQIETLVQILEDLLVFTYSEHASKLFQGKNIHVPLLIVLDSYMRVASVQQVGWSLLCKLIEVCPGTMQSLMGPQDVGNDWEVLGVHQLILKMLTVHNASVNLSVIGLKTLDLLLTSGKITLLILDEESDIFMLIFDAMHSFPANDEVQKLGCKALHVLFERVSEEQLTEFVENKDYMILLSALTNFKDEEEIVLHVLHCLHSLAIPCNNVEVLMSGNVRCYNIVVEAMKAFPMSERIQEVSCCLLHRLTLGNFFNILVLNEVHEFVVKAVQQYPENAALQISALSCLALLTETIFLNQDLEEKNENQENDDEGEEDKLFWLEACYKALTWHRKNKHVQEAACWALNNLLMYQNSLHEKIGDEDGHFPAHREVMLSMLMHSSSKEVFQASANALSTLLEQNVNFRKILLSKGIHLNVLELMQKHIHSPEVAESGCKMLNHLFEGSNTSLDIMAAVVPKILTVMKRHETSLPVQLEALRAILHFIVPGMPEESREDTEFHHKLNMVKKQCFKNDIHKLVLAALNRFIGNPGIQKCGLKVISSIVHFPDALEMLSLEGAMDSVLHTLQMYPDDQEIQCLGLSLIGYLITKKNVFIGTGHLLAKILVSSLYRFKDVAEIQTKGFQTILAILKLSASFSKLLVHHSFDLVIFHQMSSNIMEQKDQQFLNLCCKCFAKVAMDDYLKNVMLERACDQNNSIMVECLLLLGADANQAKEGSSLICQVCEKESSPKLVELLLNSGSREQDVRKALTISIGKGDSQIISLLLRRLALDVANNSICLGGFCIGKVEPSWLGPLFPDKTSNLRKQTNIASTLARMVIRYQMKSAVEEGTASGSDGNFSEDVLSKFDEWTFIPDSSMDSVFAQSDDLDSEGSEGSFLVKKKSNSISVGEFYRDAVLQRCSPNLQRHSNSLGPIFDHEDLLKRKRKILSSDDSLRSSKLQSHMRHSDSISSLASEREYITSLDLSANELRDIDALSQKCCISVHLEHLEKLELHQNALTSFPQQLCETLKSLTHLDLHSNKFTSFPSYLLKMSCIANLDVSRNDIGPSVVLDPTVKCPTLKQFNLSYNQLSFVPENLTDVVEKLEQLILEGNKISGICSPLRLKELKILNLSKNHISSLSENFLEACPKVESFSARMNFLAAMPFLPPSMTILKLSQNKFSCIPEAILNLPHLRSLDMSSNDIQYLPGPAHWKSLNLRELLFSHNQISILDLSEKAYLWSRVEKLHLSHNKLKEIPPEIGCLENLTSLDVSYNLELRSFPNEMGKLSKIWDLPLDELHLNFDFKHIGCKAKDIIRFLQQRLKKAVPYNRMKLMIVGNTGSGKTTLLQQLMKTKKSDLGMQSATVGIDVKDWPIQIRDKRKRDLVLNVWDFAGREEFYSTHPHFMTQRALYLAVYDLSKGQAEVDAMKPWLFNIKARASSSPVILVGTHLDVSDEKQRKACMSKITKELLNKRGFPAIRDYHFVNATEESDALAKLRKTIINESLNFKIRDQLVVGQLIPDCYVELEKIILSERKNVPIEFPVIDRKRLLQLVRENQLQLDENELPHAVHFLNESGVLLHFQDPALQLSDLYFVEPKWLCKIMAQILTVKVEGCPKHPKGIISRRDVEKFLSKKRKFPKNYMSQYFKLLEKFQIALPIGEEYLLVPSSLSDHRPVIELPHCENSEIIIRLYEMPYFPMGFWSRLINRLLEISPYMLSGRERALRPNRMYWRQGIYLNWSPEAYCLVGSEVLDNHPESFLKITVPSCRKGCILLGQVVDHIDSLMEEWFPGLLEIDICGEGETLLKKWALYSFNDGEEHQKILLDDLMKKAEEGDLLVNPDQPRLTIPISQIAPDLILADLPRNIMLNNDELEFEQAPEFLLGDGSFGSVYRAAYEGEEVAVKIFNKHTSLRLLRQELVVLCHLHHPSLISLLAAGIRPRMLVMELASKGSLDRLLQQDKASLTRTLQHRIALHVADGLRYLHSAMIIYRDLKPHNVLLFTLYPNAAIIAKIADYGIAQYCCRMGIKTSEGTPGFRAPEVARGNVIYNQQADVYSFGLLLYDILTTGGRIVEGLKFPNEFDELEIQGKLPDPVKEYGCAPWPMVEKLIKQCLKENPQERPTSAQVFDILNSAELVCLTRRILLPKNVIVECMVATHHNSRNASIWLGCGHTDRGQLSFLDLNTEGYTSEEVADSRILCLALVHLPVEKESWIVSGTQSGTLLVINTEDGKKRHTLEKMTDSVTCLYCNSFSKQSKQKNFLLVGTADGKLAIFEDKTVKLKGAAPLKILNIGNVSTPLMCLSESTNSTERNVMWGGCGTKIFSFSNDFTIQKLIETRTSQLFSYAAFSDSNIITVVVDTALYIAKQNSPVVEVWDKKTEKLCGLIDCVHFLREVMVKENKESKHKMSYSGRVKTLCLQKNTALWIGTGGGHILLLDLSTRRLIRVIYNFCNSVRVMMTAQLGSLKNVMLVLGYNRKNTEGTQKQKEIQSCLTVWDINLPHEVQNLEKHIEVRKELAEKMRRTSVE
T2 sequence (Q5S007 whole entry): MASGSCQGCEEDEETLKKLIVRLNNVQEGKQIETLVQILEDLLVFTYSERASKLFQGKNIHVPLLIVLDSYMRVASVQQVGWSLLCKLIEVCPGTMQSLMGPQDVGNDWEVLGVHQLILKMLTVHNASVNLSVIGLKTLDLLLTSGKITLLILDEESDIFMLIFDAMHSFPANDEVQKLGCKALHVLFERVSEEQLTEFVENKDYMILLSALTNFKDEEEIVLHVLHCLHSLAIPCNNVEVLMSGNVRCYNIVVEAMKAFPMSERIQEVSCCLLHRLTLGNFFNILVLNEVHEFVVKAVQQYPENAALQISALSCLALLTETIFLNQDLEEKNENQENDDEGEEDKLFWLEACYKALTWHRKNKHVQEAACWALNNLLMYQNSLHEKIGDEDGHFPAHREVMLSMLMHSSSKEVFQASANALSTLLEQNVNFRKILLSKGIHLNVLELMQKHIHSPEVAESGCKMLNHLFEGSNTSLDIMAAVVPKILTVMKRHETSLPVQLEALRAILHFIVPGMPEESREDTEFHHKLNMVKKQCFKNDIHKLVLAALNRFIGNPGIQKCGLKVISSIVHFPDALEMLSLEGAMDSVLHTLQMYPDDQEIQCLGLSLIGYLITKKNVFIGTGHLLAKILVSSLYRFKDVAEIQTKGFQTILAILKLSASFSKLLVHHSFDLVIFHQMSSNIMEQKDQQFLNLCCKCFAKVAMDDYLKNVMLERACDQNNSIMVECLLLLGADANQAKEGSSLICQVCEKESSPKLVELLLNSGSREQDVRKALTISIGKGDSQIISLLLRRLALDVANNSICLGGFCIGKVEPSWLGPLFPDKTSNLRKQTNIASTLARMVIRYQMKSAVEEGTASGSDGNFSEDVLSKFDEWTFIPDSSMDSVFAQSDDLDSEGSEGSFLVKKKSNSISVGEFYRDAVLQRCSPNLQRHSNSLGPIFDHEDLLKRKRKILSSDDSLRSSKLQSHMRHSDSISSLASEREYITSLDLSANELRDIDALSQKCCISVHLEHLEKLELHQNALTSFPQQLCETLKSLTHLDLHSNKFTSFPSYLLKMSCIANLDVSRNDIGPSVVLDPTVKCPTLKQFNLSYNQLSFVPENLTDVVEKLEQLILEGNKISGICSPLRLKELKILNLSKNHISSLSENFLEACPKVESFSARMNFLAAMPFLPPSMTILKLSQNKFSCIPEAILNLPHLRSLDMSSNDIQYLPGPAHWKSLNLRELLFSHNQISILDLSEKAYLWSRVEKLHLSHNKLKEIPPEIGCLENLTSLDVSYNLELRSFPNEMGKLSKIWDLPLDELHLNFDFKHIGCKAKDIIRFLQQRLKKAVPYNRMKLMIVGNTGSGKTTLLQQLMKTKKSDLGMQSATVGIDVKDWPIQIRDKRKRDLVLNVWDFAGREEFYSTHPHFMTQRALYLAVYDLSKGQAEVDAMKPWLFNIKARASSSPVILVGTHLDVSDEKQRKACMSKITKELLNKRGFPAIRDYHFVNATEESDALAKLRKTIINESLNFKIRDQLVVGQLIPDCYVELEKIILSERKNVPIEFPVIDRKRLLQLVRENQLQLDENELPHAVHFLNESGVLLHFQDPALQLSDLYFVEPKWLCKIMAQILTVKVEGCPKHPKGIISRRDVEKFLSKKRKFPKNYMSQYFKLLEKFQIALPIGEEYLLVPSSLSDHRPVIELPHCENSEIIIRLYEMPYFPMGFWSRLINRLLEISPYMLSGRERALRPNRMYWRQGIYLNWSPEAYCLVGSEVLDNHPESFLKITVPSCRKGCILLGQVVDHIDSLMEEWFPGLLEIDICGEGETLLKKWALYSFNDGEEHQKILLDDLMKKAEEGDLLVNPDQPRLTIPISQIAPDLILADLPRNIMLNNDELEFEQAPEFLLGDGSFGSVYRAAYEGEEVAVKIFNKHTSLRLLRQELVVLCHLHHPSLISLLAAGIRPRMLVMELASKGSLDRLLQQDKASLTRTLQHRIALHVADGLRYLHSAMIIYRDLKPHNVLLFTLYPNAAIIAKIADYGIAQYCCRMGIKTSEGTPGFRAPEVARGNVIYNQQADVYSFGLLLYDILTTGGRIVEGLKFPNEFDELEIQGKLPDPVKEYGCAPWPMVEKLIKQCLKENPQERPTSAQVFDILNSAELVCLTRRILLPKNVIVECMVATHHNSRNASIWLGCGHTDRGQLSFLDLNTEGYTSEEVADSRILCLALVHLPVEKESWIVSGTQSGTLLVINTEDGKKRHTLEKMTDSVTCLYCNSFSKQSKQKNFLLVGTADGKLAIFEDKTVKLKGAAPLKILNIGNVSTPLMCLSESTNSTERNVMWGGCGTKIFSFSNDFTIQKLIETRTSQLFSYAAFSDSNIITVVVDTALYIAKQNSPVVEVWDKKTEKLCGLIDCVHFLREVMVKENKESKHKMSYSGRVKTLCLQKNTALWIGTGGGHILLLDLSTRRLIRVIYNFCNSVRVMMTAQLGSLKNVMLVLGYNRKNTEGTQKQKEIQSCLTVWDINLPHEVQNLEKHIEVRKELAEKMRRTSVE

Turning to `Cc1nc(N2CCOC(C(C)O)C2)cc(-n2ncc3cc(C)c(C4CCN(C5CCOC5)CC4)cc32)n1` (single isomer, unassigned) [Example E139, 1-(4-(2-methyl-6-(5-methyl-6-(1-(tetrahydrofuran-3-yl)piperidin-4-yl)-1H-indazol-1-yl)pyrimidin-4-yl)morpholin-2-yl)ethanol], the IC50 in experiment [1] and in experiment [2] was at most 1000 nM throughout.
Consider `Cc1nc(N2CCOC[C@@H]2CO)cc(-n2ncc3cc(C)c(C4CCN(C5CCOC5)CC4)cc32)n1` (single isomer, unassigned) [Example E113], for which the IC50 in experiment [1] and in experiment [2] was at most 1000 nM each time.
On to `Cc1nc(N2CC(C)(O)C2)cc(-n2ncc3cc(Cl)c(C4CCN(C5CCOC5)CC4)cc32)n1` (single isomer, unassigned) [Example E128, 1-(6-(5-chloro-6-(1-(tetrahydrofuran-3-yl)piperidin-4-yl)-1H-indazol-1-yl)-2-methyl-pyrimidin-4-yl)-3-methylazetidin-3-ol], for which the IC50 in experiment [1] and in experiment [2] was at most 1000 nM each time.
Regarding `COc1nc(N2CCOCC2)cc(-n2ncc3cc(C)c(C4CCN(C5CCOC5)CC4F)cc32)n1` (single isomer, unassigned) [Example E125, 4-(6-(6-(3-fluoro-1-(tetrahydrofuran-3-yl)-piperidin-4-yl)-5-methyl-1H-indazol-1-yl)-2-methoxypyrimidin-4-yl)morpholine], the IC50 in experiment [1] is at most 1000 nM; in experiment [2], at most 10 nM.
Regarding `COc1nc(N2CCO[C@@H](CO)C2)cc(-n2ncc3cc(C)c(C4CCN(C5CCOC5)CC4F)cc32)n1` (single isomer, unassigned) [Example E118], the IC50 in experiment [1] and in experiment [2] was at most 10 nM in each case.
Turning to `Cc1nc(N2CCO[C@H](CO)C2)cc(-n2ncc3cc(C)c(C4CCN(C5COCC5C)CC4)cc32)n1` (stereo partly drawn) [Example E155, ((2S)-4-(2-methyl-6-(5-methyl-6-(1-(4-methyltetrahydrofuran-3-yl)piperidin-4-yl)-1H-indazol-1-yl)pyrimidin-4-yl)morpholin-2-yl)methanol], the IC50 in experiment [1] was at most 100 nM; in experiment [2] it was at most 1000 nM.
Take `Cc1nc(N2CCO[C@H](CO)C2)cc(-n2ncc3cc(C)c(C4CCN(C5CCOC5)CC4)cc32)n1` (single isomer, unassigned) [Example E1]: the IC50 was 79.4 nM in experiment [1]; ≤ 100 nM and 126 nM in experiment [2].
For the compound `Cc1nc(N2CCOC(C)(CO)C2)cc(-n2ncc3cc(C)c(C4CCN([C@H]5CCOC5)CC4)cc32)n1` (stereo partly drawn) [Example E156, (2-methyl-4-(2-methyl-6-(5-methyl-6-(1-((S)-tetrahydrofuran-3-yl)piperidin-4-yl)-1H-indazol-1-yl)pyrimidin-4-yl)morpholin-2-yl)methanol], the IC50 is at most 100 nM in experiment [1] and at most 1000 nM in experiment [2].
For `Cc1nc(N2CC(O)C2)cc(-n2ncc3cc(C)c(C4CCN(C5CCOC5)CC4F)cc32)n1` (single isomer, unassigned) [Example E13, cis-1-(6-(6-(3-Fluoro-1-(tetrahydrofuran-3-yl)piperidin-4-yl)-5-methyl-1H-indazol-1-yl)-2-methylpyrimidin-4-yl)azetidin-3-ol] the same measures were at most 1000 nM and at most 100 nM.
For `COc1nc(N2CCO[C@@H](CO)C2)cc(-n2ncc3cc(C)c(C4CCN(C5CCOC5)CC4F)cc32)n1` (single isomer, unassigned) [Example E120] the same measures were at most 10 nM and at most 10 nM.
For `Cc1nc(N2CCO[C@@H](CO)C2)cc(-n2ncc3cc(C)c(C4CCN(C5CCOC5)CC4F)cc32)n1` (single isomer, unassigned) [Example E102] the same measures were at most 100 nM and at most 1000 nM.
Consider `[2H]c1nn(-c2cc(N3CCO[C@@H](CO)C3)nc(C)n2)c2cc(C3CCN([C@H]4CCOC4)CC3)c(C)cc12` [Example E95, ((R)-4-(6-(3-deuterium-5-methyl-6-(1-((S)-tetrahydrofuran-3-yl)piperidin-4-yl)-1H-indazol-1-yl)-2-methylpyrimidin-4-yl)morpholin-2-yl)methanol], for which the IC50 in experiment [1] was ≤ 100 nM and 39.8 nM; in experiment [2], at most 1000 nM.
`Cc1nc(N2CCOC(C(C)O)C2)cc(-n2ncc3cc(C)c(C4CCN(C5CCOC5)CC4)cc32)n1` (single isomer, unassigned) [Example E138, 1-(4-(2-methyl-6-(5-methyl-6-(1-(tetrahydrofuran-3-yl)piperidin-4-yl)-1H-indazol-1-yl)pyrimidin-4-yl)morpholin-2-yl)ethanol]: the IC50 in experiment [1] was ≤ 100 nM and 25.1 nM; in experiment [2], ≤ 100 nM and 63.1 nM.
Turning to `Cc1nc(N2CCO[C@H](CO)C2)cc(-n2ncc3cc(C)c(C4CCN(C5COCC5F)CC4)cc32)n1` (single isomer, unassigned) [Example E150], the IC50 in experiment [1] was at most 1000 nM; in experiment [2], at most 100 nM.
For `Cc1nc(N2CCOC(C(C)O)C2)cc(-n2ncc3cc(C)c(C4CCN(C5CCOC5)CC4)cc32)n1` (single isomer, unassigned) [Example E141, 1-(4-(2-methyl-6-(5-methyl-6-(1-(tetrahydrofuran-3-yl)piperidin-4-yl)-1H-indazol-1-yl)pyrimidin-4-yl)morpholin-2-yl)ethanol] the same measures were at most 100 nM and at most 1000 nM.
In the case of `Cc1nc(N2CCOC(C(C)O)C2)cc(-n2ncc3cc(C)c(C4CCN(C5CCOC5)CC4)cc32)n1` (single isomer, unassigned) [Example E142, 1-(4-(2-methyl-6-(5-methyl-6-(1-(tetrahydrofuran-3-yl)piperidin-4-yl)-1H-indazol-1-yl)pyrimidin-4-yl)morpholin-2-yl)ethanol], the IC50 in experiment [1] and in experiment [2] was at most 1000 nM in each case.
